Assay results reported in patent US20240182785A1, “COMPOUND, COMPOSITION, CURED PRODUCT, OPTICALLY ANISOTROPIC BODY, OPTICAL ELEMENT, AND LIGHT GUIDE ELEMENT” (FUJIFILM Corporation, priority 2021, published 2024).

Columns and labels:
Format in all cases: physicochemical
[1] = Measurement of Δn (refractive index anisotropy), wedge-shaped liquid crystal cell; settings: 550 nm, 30° C. or lower limit temperature of nematic phase +0 to 10° C.; some compounds extrapolated from 1/2 mixture with L-1-1
Procedure: The Δn of each of the compounds (the compounds A-1 to A-11 and the compounds B-1 and B-2), which are the compounds to be measured, was measured by a method using a wedge-shaped liquid crystal cell described on page 202 in the Liquid crystal handbook (edited by the liquid crystal handbook editorial board, published by Maruzen Co., Ltd., 2000). Δn was defined as a measured value at a wavelength of 550 nm at 30° C. or the lower limit temperature of the nematic phase +0° C. to 10° C. In a case of a compound which is liable to crystallize or a compound having no liquid crystallinity, evaluation was carried out using a mixture thereof with the other liquid crystal compound, and Δn was estimated from the extrapolated value of the measured value thereof. The following L-1-1 was used as the other liquid crystal compound. As the above mixture, a mixture obtained by mixing at a ratio of the compound to be measured/the L-1-1=1/2 (in terms of mass ratio) was used.
A case where Δn was 0.40 or more was evaluated as A, a case where Δn was 0.35 or more and less than 0.40 was evaluated as B, a case where Δn was 0.30 or more and less than 0.35 was evaluated as C, and a case where Δn was less than 0.30 was evaluated as D. The results are shown in Table 1.

[2] = Evaluation of liquid crystallinity (hot stage, polarization microscope); design: key: A case of having liquid crystallinity was evaluated as A; a case of having no liquid crystallinity was evaluated as B; settings: heated on a hot stage
Procedure: The respective compounds (the compounds A-1 to A-11 and the compounds B-1 and B-2) were heated on a hot stage and observed with a polarization microscope, and the phase transition temperature was measured to evaluate the presence or absence of the liquid crystallinity. A case of having liquid crystallinity was evaluated as A, and a case of having no liquid crystallinity was evaluated as B. The results are shown in Table 1.
Since the compound A-8 has melting points of 200° C. or higher and undergoes a polymerization reaction during heating, liquid crystallinity could not be evaluated.

[3] = Evaluation of light resistance of optically anisotropic layer (Super Xenon Weather Meter); settings: rate of change in Re of cured layer (25 parts compound, 75 parts L-1), 5 million lx, 50 hours, 63° C., 50% RH, oxygen-blocking
Procedure: (§1) As shown below, the light resistance and the durability of the optically anisotropic layer produced using the composition containing each of the compounds A-1 to A-11 and the compounds B-1 and B-2 were evaluated.
(§2) A coating liquid having the following composition was prepared and applied by spin-coating, onto a rubbing-treated glass attached with an alignment film. Each composition was irradiated with ultraviolet rays of 300 mJ/cm^2 through a filter that cuts light having a wavelength of 350 nm or less on a hot plate which had been heated to a temperature at which a nematic phase is shown, whereby an optically anisotropic layer for a light resistance/durability test was produced.
(§3) The polymerizable liquid crystal compound L-1 is a mixture obtained by mixing at a
(§4) ratio of the following L-1-1/L-1-2/L-1-3=84/14/2 (in terms of mass ratio).
The produced optically anisotropic layers for light resistance/durability tests were irradiated with light using a Super Xenon Weather Meter SX75 manufactured by Suga Test Instruments Co., Ltd. Using KU-1000100 manufactured by King Seisakusho Co., Ltd. as a UV cut filter, a light resistance test was carried out by irradiation with 5 million lx of light for 50 hours under an oxygen-blocking condition. The temperature of the specimen to be tested (the temperature inside the test device) was set to 63° C. The relative humidity in the test device was 50% RH.
The Re of the optically anisotropic layer before and after the light resistance test was measured, the light resistance in a case where the rate of change in Re described below was less than 10% was evaluated as A, and the light resistance in a case where the rate of change in Re was 10% or more was evaluated as B. The smaller the rate of change in Re, the more excellent the light resistance.
(§5) Rate of change in Re (%)=[100×{|(Re after test)−(Re before test)|}/(Re before test)]
(§6) Re was measured with Axoscan manufactured by Axometrics Inc. at a wavelength of 550 nm, and the measurement temperature was set to room temperature.

[4] = Evaluation of solubility in cyclopentanone; settings: precipitation concentration in cyclopentanone at 25° C.
Procedure: The solubility of each of the compounds (the compounds A-1 to A-11 and the compounds B-1 and B-2) in cyclopentanone was evaluated.

[5] = Evaluation of durability of optically anisotropic layer (moisture-heat resistance test); settings: rate of change in Re of cured layer (25 parts compound, 75 parts L-1), 136 hours at 100° C., humidity 95%
Procedure: as §1, §2, §3, §4, §5, §6
The produced optically anisotropic layer was allowed to be left for 136 hours at 100° C. and a humidity of 95%, whereby a moisture-heat resistance test was carried out. The rate of change in Re before and after the durability test was evaluated, the durability in a case where the rate of change in Re was less than 10% was evaluated as A, and the durability in a case where the rate of change in Re was 10% or more was evaluated as B. The smaller the rate of change in Re, the more excellent the durability.

| Liquid crystallinity [2] | SMILES | Δn [1] | Light resistance [3] | Solubility [4] | Durability [5] |
| --- | --- | --- | --- | --- | --- |
| A | C=CC(=O)OCCc1ccc(C#Cc2ccc(OCc3ccc4cc(C#Cc5ccc(CCOC(=O)C=C)cc5)ccc4c3)c(C(=O)OC)c2)cc1 [Compound A-11] | B (a case where Δn was 0.35 or more and less than 0.40 was evaluated as B) | A (the light resistance in a case where the rate of change in Re described below was less than 10% was evaluated as A) | A (the solubility in a case where the precipitation concentration was 5% by mass or more was evaluated as A) | A (the durability in a case where the rate of change in Re was less than 10% was evaluated as A) |
| A | C=CC(=O)OCCCCSc1nc2ccc(C#Cc3ccc(OCc4ccc5cc(C#Cc6ccc7nc(SCCCCOC(=O)C=C)sc7c6)ccc5c4)c(C(=O)OC)c3)cc2s1 [Compound A-9] | A (A case where Δn was 0.40 or more was evaluated as A) | B (the light resistance in a case where the rate of change in Re was 10% or more was evaluated as B) | B (the solubility in a case where the precipitation concentration was less than 5% by mass was evaluated as B) | A (the durability in a case where the rate of change in Re was less than 10% was evaluated as A) |
| A | C=CC(=O)OCCSc1ccc(C#Cc2ccc(-c3ccc(COc4ccc(C#Cc5ccc(SCCOC(=O)C=C)cc5)cc4C(=O)OC)cc3)cc2)cc1 [Compound A-6] | A (A case where Δn was 0.40 or more was evaluated as A) | A (the light resistance in a case where the rate of change in Re described below was less than 10% was evaluated as A) | A (the solubility in a case where the precipitation concentration was 5% by mass or more was evaluated as A) | A (the durability in a case where the rate of change in Re was less than 10% was evaluated as A) |
| A | CC(=O)OCCCCCCCCCCOc1ccc(C#Cc2ccc(OC(=O)c3ccc(C#Cc4ccc(OCCCCCCCCCCOC(C)=O)c(F)c4)cc3)cc2)cc1F [Compound B-1, reference compound] | D (a case where Δn was less than 0.30 was evaluated as D) | B (the light resistance in a case where the rate of change in Re was 10% or more was evaluated as B) | A (the solubility in a case where the precipitation concentration was 5% by mass or more was evaluated as A) | A (the durability in a case where the rate of change in Re was less than 10% was evaluated as A) |
| A | C=CC(=O)OCCCCOc1ccc(C(=O)Nc2ccc(C#Cc3ccc4cc(OCCCCOC(=O)C=C)ccc4c3)cc2C(F)(F)F)cc1 [Compound B-2, reference compound] | C (a case where Δn was 0.30 or more and less than 0.35 was evaluated as C) | A (the light resistance in a case where the rate of change in Re described below was less than 10% was evaluated as A) | A (the solubility in a case where the precipitation concentration was 5% by mass or more was evaluated as A) | A (the durability in a case where the rate of change in Re was less than 10% was evaluated as A) |
| A | C=CC(=O)OCCSc1ccc(C#Cc2ccc(OC(=O)c3ccc4cc(C#Cc5ccc(SCCOC(=O)C=C)cc5)ccc4c3)c(C(=O)OC)c2)cc1 [Compound A-10] | A (A case where Δn was 0.40 or more was evaluated as A) | B (the light resistance in a case where the rate of change in Re was 10% or more was evaluated as B) | A (the solubility in a case where the precipitation concentration was 5% by mass or more was evaluated as A) | A (the durability in a case where the rate of change in Re was less than 10% was evaluated as A) |

Second part, the compound before the results:

| SMILES | Liquid crystallinity [2] | Δn [1] | Light resistance [3] | Solubility [4] | Durability [5] |
| --- | --- | --- | --- | --- | --- |
| C=CC(=O)OCCSc1ccc(C#Cc2ccc(OCc3ccc4cc(C#Cc5ccc(SCCOC(=O)C=C)cc5)ccc4c3)cc2)cc1 [Compound A-8] |  | A (A case where Δn was 0.40 or more was evaluated as A) | A (the light resistance in a case where the rate of change in Re described below was less than 10% was evaluated as A) | B (the solubility in a case where the precipitation concentration was less than 5% by mass was evaluated as B) | A (the durability in a case where the rate of change in Re was less than 10% was evaluated as A) |
| C=CC(=O)OCCSc1ccc(C#Cc2cc(C)c(OCc3ccc4cc(C#Cc5ccc(SCCOC(=O)C=C)cc5)ccc4c3)c(C)c2)cc1 [Compound A-4] | A | A (A case where Δn was 0.40 or more was evaluated as A) | A (the light resistance in a case where the rate of change in Re described below was less than 10% was evaluated as A) | A (the solubility in a case where the precipitation concentration was 5% by mass or more was evaluated as A) | A (the durability in a case where the rate of change in Re was less than 10% was evaluated as A) |
| C=CC(=O)OCCSc1ccc(C#Cc2ccc(OCc3ccc4cc(C#Cc5ccc(SCCOC(=O)C=C)cc5)ccc4c3)c(C(=O)OC)c2)cc1 [Compound A-2] | A | A (A case where Δn was 0.40 or more was evaluated as A) | A (the light resistance in a case where the rate of change in Re described below was less than 10% was evaluated as A) | A (the solubility in a case where the precipitation concentration was 5% by mass or more was evaluated as A) | A (the durability in a case where the rate of change in Re was less than 10% was evaluated as A) |
| C=CC(=O)OCCc1ccc(C#Cc2ccc(-c3ccc(COc4ccc(C#Cc5ccc(CCOC(=O)C=C)cc5)cc4C(=O)OC)cc3)cc2)cc1 [Compound A-1] | A | B (a case where Δn was 0.35 or more and less than 0.40 was evaluated as B) | A (the light resistance in a case where the rate of change in Re described below was less than 10% was evaluated as A) | A (the solubility in a case where the precipitation concentration was 5% by mass or more was evaluated as A) | A (the durability in a case where the rate of change in Re was less than 10% was evaluated as A) |
| C=CC(=O)OCCSc1ccc(C#Cc2ccc(OCc3ccc4cc(C#Cc5ccc(SCCOC(=O)C=C)cc5)ccc4c3)c(C(=O)OCC)c2)cc1 [Compound A-3] | A | A (A case where Δn was 0.40 or more was evaluated as A) | A (the light resistance in a case where the rate of change in Re described below was less than 10% was evaluated as A) | A (the solubility in a case where the precipitation concentration was 5% by mass or more was evaluated as A) | A (the durability in a case where the rate of change in Re was less than 10% was evaluated as A) |
